Laboratory results as given in patent US20110245334A1, “USE OF RACEMATES OF PINOCEMBRIN IN PREPARING MEDICAMENTS FOR TREATING STROKE” (CSPC Zhonggi Pharmaceutical Technology (Shijiazhuang) Co. …, priority 2008, published 2011).

What was measured:
Format in all cases: in vivo, rat
[1] = system: tMCAO rats; assay: Neurobehavioral examination (Bederson's score), tMCAO time window study; conditions: 2 hours ischemia and 24 hours reperfusion
Method: (§1) 1. In the test, transient middle cerebral artery occlusion (tMCAO) model of rats was adopted. The reperfusion was performed after focal cerebral ischemia for 2 hours so as to inspect therapeutic time window of pinocembrin after focal cerebral ischemia. The rats were administered by pinocembrin racemate (1 mg/kg, 5 mg/kg, intravenous injection) after reperfusion 1 hour, 4 hours and 6 hours (i.e., ischemia 3 hour, 6 hours and 8 hours). (R)-pinocembrin and (S)-pinocembrin (1 mg/kg, 5 mg/kg, intravenous injection) were administered after reperfusion 1 hour and 4 hours (i.e., ischemia 3 hour and 6 hours). The therapeutic time windows of these drugs in focal cerebral ischemia were assessed by studying their effects to neurological symptom scores, infarct sizes and brain water contents during 24 hours after tMCAO.
The CCA and ICA were clipped with artery clips. Two No. 0 surgery lines were litigated on the ECA distal end with 2-3 mm spacing and then the vascular between the two surgery lines was cut. The distal end of ECA was pulled until it formed a straight line with the ICA. An incision was cut on ECA and a nylon line was inserted through ECA into ICA. After the artery clip was loosen, the nylon line was pushed on into the brain through ICA and inserted in depth of 18.5±0.5 mm when resistance was felt slightly. The nylon line reached a smaller anterior cerebral artery through the beginning of MCA and then the blood flow obstruction in right MCA was established. the animals were kept in anesthesia during the obstruction. After 2 hours of obstruction, the nylon line was gently pulled out to ECA stub to form reperfusion. During the surgery process, the animals were irradiated by table lamp of 100 W to maintain the body temperature. The room temperature was kept in range of 23-25° C.
(§2) 2.4 Experimental Grouping and Administration • Sham operation group (intravenous injection of normal saline after 3 hours of ischemia); • Model group (intravenous injection of 50 mg/kg hydroxypropyl β-cyclodextrin after 3 hours of ischemia); • Nimodipine group (1 mg/kg, administered after 3 hours of ischemia); • Pinocembrin racemate group (1 mg/kg, 5 mg/kg, administered after 3, 6 and 8 hours of ischemia); • (R)-pinocembrin group (1 mg/kg, 5 mg/kg, administered after 3 and 6 hours of ischemia); • (S)-pinocembrin group (1 mg/kg, 5 mg/kg, administered after 3 and 6 hours of ischemia).
(§3) First administration was performed by intravenous injection, and intraperitoneal injection was carried out once 12 hours later with a dose 1.5 times of that for intravenous injection.
Neurobehavioral examination was performed respectively when the animals were awake after surgery and before the animals were put to death. Bederson's score was adopted (see details in Example 2, 1. Neurobehavioral Examination).

[2] = system: plasma ET-1; assay: Plasma ET-1 (radioimmunoassay) in SHRSP; set-up: ET-1 content: unit not given here; conditions: plasma, SHRSP rats
Method: 5) Blood of 2 mL was dropped rapidly in a cuvette with 30 μL 7.5% EDTA-2Na and 40 μL aprotinin and mixed. After centrifuged for 5 min at 3000 rpm, plasma ET-1 in liquid supernatant was determined by isotope radioimmunoassay.

[3] = system: plasma fibrinogen; assay: Plasma fibrinogen assay (ELISA) in SHRSP; set-up: Plasma fibrinogen: unit not given here; conditions: SHRSP rats
Method: The mixture was centrifuged for 15 min at 3000 rpm and plasma fibrinogen in liquid supernatant was determined by euzymelinked immunosorbent assay (ELISA).

[4] = system: MCAO rats; assay: Neurobehavioral examination (Bederson's score), MCAO acute ischemic stroke
Method: Experimental animals: 100 male SD rats with a body weight of 250-280 g were purchased from the Experimental Animals Institute of the Chinese Academy of Medical Science. The rats were grouped randomly as a sham operation group, a model group, pinocembrin groups and a nimodipine group (3 mg/kg).
Experimental model: the model of acute ischemic stroke was made by middle cerebral artery occlusion (MCAO).
The string occlusion method in middle cerebral artery as established by Zea Longa was adopted with proper improvements. 400 mg/kg 10% chloral hydrate was intraperitoneally injected in rats. The external carotid artery (ECA) was separated and ligated at the site where the artery emitted for about 0.8 cm. The end of ECA closing to the heart was clipped by an artery clip. A 2 mm V-shaped incision was made from ECA ligation to ECA bifurcation. A nylon line was inserted gently into […] and then into internal carotid artery (ICA) through the bifurcation of ECA and ICA after loosening the artery clip. The nylon line was pushed into the brain through ICA and inserted in depth of 18.5±0.5 mm when resistance was felt slightly. The nylon line should reach smaller anterior cerebral artery through the beginning of middle cerebral artery (MCA) and ICA could be ligated and sutured. Stump of the nylon line should be reserved with 1 cm outside the skin.
Neurobehavioral examination was performed before the animals were put to death. The rats were raised off the ground for about 1 chi (1 chi=⅓ meter) to observe the state of two forelimbs. The rats were placed on the ground and were pushed by their shoulders to observe differences of their resistance. The rats were placed on the ground and were observed by the way of walking. Four-stage scoring method […] was adopted. The higher the score was, the more serious injury existed in their neurobehavior.
Bederson's scoring standard:
(1) If the rats acted completely normal, score 0 was recorded.
(2) When the rats were raised off the ground, if the rats rotated or retracted forelimb of surgery-contralateral side internally, score 1 was recorded.
(3) When the rats were placed on the ground and squeezed with the hand to examine the resistance of both sides, if the resistance of surgery-contralateral side declined, score 2 was recorded.
(4) When the rats were placed on the ground to observe the way of walking, if the rats circled around the surgery-contralateral side, score 3 was recorded.
(5) If the rats were injured too seriously to move by themselves, score 4 was recorded.

[5] = system: tMCAO rats; assay: Brain water content, tMCAO time window study; conditions: 2 hours ischemia and 24 hours reperfusion
Method: as §1, §2, §3
The wet weight of each animal's brain was weighted before sliced. After staining, the brain slices were dried at 105° C. for 24 hours, and the dry weight of each animal's brain was weighted. The brain water contents of animals of various groups were compared. Brain water content=(brain wet weight−brain dry weight)/brain wet weight×100%.

Work on `O=C1CC(c2ccccc2)Oc2cc(O)cc(O)c21` (racemic) [Pinocembrin racemate, pinocembrin racemate] yielded a Neurobehavioral value ([1]; 1 mg/kg, 3 h) of 1.44 ± 0.72, a Neurobehavioral value ([1]; 1 mg/kg, 6 h) of 1.68 ± 0.46 and a Neurobehavioral value ([1]; 1 mg/kg, 8 h) of 1.88 ± 0.61. The Neurobehavioral value ([1]; 5 mg/kg, 3 h) was 1.44 ± 0.52, the Neurobehavioral value ([1]; 5 mg/kg, 6 h) was 1.66 ± 0.77 and the Neurobehavioral value ([1]; 5 mg/kg, 8 h) was 1.91 ± 0.66. The ET-1 content ([2]; 3 mg/kg) was 221.4 ± 20.4, the ET-1 content ([2]; 10 mg/kg) was 209.2 ± 16.7 and the ET-1 content ([2]; 30 mg/kg) was 182.4 ± 24.2. It also gave a Plasma fibrinogen ([3]; 3 mg/kg) of 2.79 ± 0.13, a Plasma fibrinogen ([3]; 10 mg/kg) of 2.62 ± 0.15 and a Plasma fibrinogen ([3]; 30 mg/kg) of 2.56 ± 0.42. For the same compound, the “Bederson's score” value ([4]; 3 mg/kg) was 2.4 ± 0.7, the “Bederson's score” value ([4]; 10 mg/kg) was 1.8 ± 0.6 and the “Bederson's score” value ([4]; 30 mg/kg) was 1.5 ± 0.3. The “Brain water content (%)” value ([5]; 1 mg/kg, 3 h) was 82.20 ± 1.00 %, the “Brain water content (%)” value ([5]; 1 mg/kg, 6 h) was 82.44 ± 1.28 % and the “Brain water content (%)” value ([5]; 1 mg/kg, 8 h) was 83.26 ± 1.05%. The “Brain water content (%)” value ([5]; 5 mg/kg, 3 h) was 82.23 ± 1.42 %, the “Brain water content (%)” value ([5]; 5 mg/kg, 6 h) was 81.12 ± 1.42 % and the “Brain water content (%)” value ([5]; 5 mg/kg, 8 h) was 83.29 ± 1.79%.

With `COCCOC(=O)C1=C(C)NC(C)=C(C(=O)OC(C)C)C1c1cccc([N+](=O)[O-])c1` (centres unmarked) [Nimodipine, reference compound] the Neurobehavioral value ([1]; 1 mg/kg, 3 h) was 2.09 ± 0.63, the ET-1 content ([2]; 3 mg/kg) was 174.8 ± 20.8 and the Plasma fibrinogen ([3]; 3 mg/kg) was 2.67 ± 0.13. The “Bederson's score” value ([4]; 3 mg/kg) was 2.5 ± 0.7 and the “Brain water content (%)” value ([5]; 1 mg/kg, 3 h) was 83.33 ± 1.01%.
